The values that follow are results of earlier work, collected in patent publication US20200309767A1, “HIGH-THROUGHPUT IMAGING-BASED METHODS FOR PREDICTING CELL-TYPE-SPECIFIC TOXICITY OF XENOBIOTICS WITH DIVERSE CHEMICAL STRUCTURES” (priority 2015, published 2020).

The test system of one data set is lung. The conditions noted are these: cited from earlier work.
Data set [1] has as its system human proximal tubular cells (PTCs). The conditions noted are these: cited from earlier work.
A further data set deals with human kidney. The following applies: cited from earlier work.
For a further data set, the system named is liver. The conditions noted are these: in vivo; cited from earlier work.
[2] abbreviates: known in vivo group, Toxic / Non-toxic.
The mark [3] stands for this setting: known human kidney toxicity flag 1/0.

Where a name gives a salt, the structure may show the parent alone. Read-outs that look alike come from different tables or passages of the source.

As for `CC(O)CCC(=O)c1ccoc1` (stereo not drawn) [4-Ipomeanol], the Pulmonotoxic in the data set with lung (known toxicity flag 1/0) was 0.
`C[C@H]1O[C@H](O[C@H]2[C@H](O)[C@@H](O)[C@@H](O[C@H]3[C@H](O)[C@@H](O)C(O)O[C@@H]3CO)O[C@@H]2CO)[C@H](O)[C@@H](O)[C@@H]1N[C@H]1C=C(CO)[C@@H](O)[C@H](O)[C@H]1O` (stereo partly drawn) [Acarbose]: in data set [1] (human, in vivo), the “PTC Toxicity” value is given as “Non-toxic”. Moreover, the PTC-toxic in data set [1] (known toxicity flag 1/0) was 0.
On to `CC(=O)Nc1ccc(O)cc1` [Acetaminophen], for which, in data set [1] (human, in vivo), the “PTC Toxicity” value is “Non-toxic” and the PTC-toxic is recorded as 0. Further, the Nephrotoxic in the data set on human kidney (in vivo) is on record as 1. Also, in the data set with liver, the Hepatotoxic was 1.
With `CCCCc1oc2ccccc2c1C(=O)c1cc(I)c(OCCN(CC)CC)c(I)c1.Cl` [Amidoarone hydrochloride], the Pulmonotoxic in the data set on lung (known toxicity flag 1/0) is 1.
As to `COc1cccc2c1cc([N+](=O)[O-])c1c(C(=O)O)cc3c(c12)OCO3` [Aristolochic acid], the “PTC Toxicity” value in data set [1] (setting [2]) is listed as “Toxic”. For the same compound, in data set [1] (known toxicity flag 1/0), the PTC-toxic is on record as 1. In the data set with human kidney (setting [3]), the Nephrotoxic is 1. For the same compound, in the data set on liver, the Hepatotoxic was 1.
Regarding `O=[As]O[As]=O` (stereo not drawn) [Arsenic(III) oxide], the “PTC Toxicity” value in data set [1] (setting [2]) is reported as “Toxic”. The PTC-toxic in data set [1] (known toxicity flag 1/0) was 1. Moreover, in the data set with human kidney (setting [3]), the Nephrotoxic is 1. The Hepatotoxic with liver is given as 1.
Regarding `CC(O)(CS(=O)(=O)c1ccc(F)cc1)C(=O)Nc1ccc(C#N)c(C(F)(F)F)c1` (stereo not drawn) [Bicalutamide], in the data set on lung (human, in vivo), the Pulmonotoxic is reported as 0.
With `[Bi+3].[Bi+3].[O-2].[O-2].[O-2]` [Bismuth(III) oxide], in data set [1] (setting [2]), the “PTC Toxicity” value is given as “Toxic”. Moreover, the PTC-toxic in data set [1] (known toxicity flag 1/0) is 1. Further, the Nephrotoxic in the data set on human kidney (setting [3]) is on record as 1. Also, in the data set on liver, the Hepatotoxic is reported as 1.
With `Cc1cc(C(C)(C)C)c(O)c(C(C)(C)C)c1` [Butylated hydroxytoluene], the Pulmonotoxic with lung (human, in vivo) is listed as 0.
Take `NC(=O)N1c2ccccc2C=Cc2ccccc21` [Carbamazepine]: in the data set with lung (human, in vivo), the Pulmonotoxic is 1.
As for `O=C(Cc1cccs1)N[C@@H]1C(=O)N2C(C(=O)[O-])=C(C[n+]3ccccc3)CS[C@H]12` [Cephaloridine], in data set [1] (human, in vivo), the “PTC Toxicity” value is recorded as “Toxic” and the PTC-toxic was 1. In addition, the Nephrotoxic in the data set with human kidney (in vivo) is 1. Also, the Hepatotoxic with liver is 0.
With `CC(=O)OCC1=C(C(=O)O)N2C(=O)[C@@H](NC(=O)CCC[C@@H](N)C(=O)O)[C@H]2SC1` [Cephalosporin C], in data set [1] (human, in vivo), the “PTC Toxicity” value is recorded as “Toxic” and the PTC-toxic is listed as 1. For the same compound, in the data set with human kidney (in vivo), the Nephrotoxic was 1. In addition, the Hepatotoxic with liver is 0.
For `CC(=O)OCC1=C(C(=O)O)N2C(=O)[C@@H](NC(=O)Cc3cccs3)[C@H]2SC1` [Cephalothin], in data set [1] (human, in vivo), the “PTC Toxicity” value is on record as “Toxic” and the PTC-toxic is recorded as 1. Also, the Nephrotoxic with human kidney (in vivo) is reported as 1. In addition, in the data set with liver, the Hepatotoxic is on record as 0.
`CC1=C2C(=CO[C@H](C)[C@H]2C)C(O)=C(C(=O)O)C1=O` [Citrinin]: in data set [1] (human, in vivo), the “PTC Toxicity” value is “Toxic” and the PTC-toxic is listed as 1. Moreover, the Nephrotoxic in the data set with human kidney (in vivo) is 1. Also, in the data set with liver, the Hepatotoxic is given as 0.
Take `[Cl][Cu][Cl]` [Copper(II) chloride]: the “PTC Toxicity” value in data set [1] (setting [2]) was “Toxic”. For the same compound, the PTC-toxic in data set [1] (known toxicity flag 1/0) is 1. The Nephrotoxic with human kidney (setting [3]) is reported as 1. Further, in the data set with liver, the Hepatotoxic is listed as 1.
For the compound `O=P1(N(CCCl)CCCl)NCCCO1` (stereo not drawn) [Cyclophosphamide], the Pulmonotoxic with lung (known toxicity flag 1/0) is reported as 1.
`OC[C@@H](O)[C@@H](O)[C@H](O)[C@@H](O)CO` [D-sorbitol]: the Pulmonotoxic with lung (human, in vivo) was 0.
As to `C[C@@H]1C[C@H]2[C@@H]3CCC4=CC(=O)C=C[C@]4(C)[C@@]3(F)[C@@H](O)C[C@]2(C)[C@@]1(O)C(=O)CO` [Dexamethasone], in data set [1] (human, in vivo), the “PTC Toxicity” value is given as “Non-toxic” and the PTC-toxic is on record as 0. For the same compound, in the data set with human kidney (in vivo), the Nephrotoxic is recorded as 0. Besides, the Hepatotoxic with liver was 0.
For `CC(=O)C(C)=O` [Diacetyl], the Pulmonotoxic in the data set with lung (human, in vivo) is on record as 1.
Regarding `[Ge+4].[O-2].[O-2]` [Germanium(IV) oxide], the “PTC Toxicity” value in data set [1] (setting [2]) is given as “Toxic”. Moreover, the PTC-toxic in data set [1] (known toxicity flag 1/0) is reported as 1. In the data set with human kidney (setting [3]), the Nephrotoxic was 1. Besides, the Hepatotoxic with liver is on record as 0.
With `NCC(=O)O` [Glycine], in data set [1] (human, in vivo), the “PTC Toxicity” value is given as “Non-toxic” and the PTC-toxic is recorded as 0. Also, the Nephrotoxic in the data set on human kidney (in vivo) is given as 0. Further, in the data set on liver, the Hepatotoxic is recorded as 0.
`[Cl][Au]` [Gold(I) chloride]: in data set [1] (human, in vivo), the “PTC Toxicity” value is on record as “Toxic” and the PTC-toxic is listed as 1. Besides, the Nephrotoxic in the data set on human kidney (in vivo) is listed as 1. Also, in the data set with liver, the Hepatotoxic was 1.
Turning to `C[C@]12CCC(=O)C=C1CC[C@@H]1[C@@H]2[C@@H](O)C[C@@]2(C)[C@H]1CC[C@]2(O)C(=O)CO` [Hydrocortisone], in data set [1] (human, in vivo), the “PTC Toxicity” value is “Non-toxic” and the PTC-toxic is on record as 0. Also, the Hepatotoxic in the data set on liver is on record as 0.
`CC(C)Cc1ccc(C(C)C(=O)O)cc1` (stereo not drawn) [Ibuprofen]: in data set [1] (human, in vivo), the “PTC Toxicity” value is reported as “Non-toxic” and the PTC-toxic is recorded as 0. Also, the Hepatotoxic in the data set with liver was 1.
Take `CC(=O)N1CCN(c2ccc(OCC3COC(Cn4ccnc4)(c4ccc(Cl)cc4Cl)O3)cc2)CC1` (stereo not drawn) [Ketoconazole]: the Pulmonotoxic in the data set on lung (human, in vivo) was 0.
On to `N[C@@H](Cc1ccc(O)c(O)c1)C(=O)O` [Levodopa], for which, in data set [1] (human, in vivo), the “PTC Toxicity” value is listed as “Non-toxic”.
On to `CCC[C@@H]1C[C@@H](C(=O)N[C@@H]([C@H]2O[C@H](SC)[C@H](O)[C@@H](O)[C@H]2O)[C@@H](C)O)N(C)C1` [Lincomycin hydrochloride], for which, in the data set with lung (human, in vivo), the Pulmonotoxic is reported as 0.
`Cl[C@H]1[C@H](Cl)[C@@H](Cl)[C@@H](Cl)[C@H](Cl)[C@H]1Cl` [Lindane]: in data set [1] (human, in vivo), the “PTC Toxicity” value is recorded as “Non-toxic” and the PTC-toxic was 0. In addition, the Nephrotoxic in the data set with human kidney (in vivo) was 1. In addition, in the data set on liver, the Hepatotoxic was 0.
For the compound `COc1ccc2[nH]cc(CCNC(C)=O)c2c1` [Melatonin], the “PTC Toxicity” value in data set [1] (human, in vivo) is reported as “Non-toxic”.
In the case of `CN(C)C(=N)N=C(N)N` [Metformin hydrochloride], the Nephrotoxic with human kidney (in vivo) was 1. The Hepatotoxic with liver is 0.
`CN(Cc1cnc2nc(N)nc(N)c2n1)c1ccc(C(=O)N[C@@H](CCC(=O)O)C(=O)O)cc1` [Methotrexate]: in the data set on lung (human, in vivo), the Pulmonotoxic was 1.
As for `C[C@H]1C(=O)O[C@@H]2CCN3CC=C(COC(=O)[C@](C)(O)[C@]1(C)O)[C@H]23` [Monocrotaline], the Pulmonotoxic with lung (human, in vivo) was 0.
Take `CN(CCCC(=O)c1cccnc1)N=O` [NNK]: the Pulmonotoxic in the data set with lung (known toxicity flag 1/0) was 1.
As for `O=C1CC[C@@]2(O)[C@H]3Cc4ccc(O)c5c4[C@@]2(CCN3CC2CC2)[C@H]1O5` [Naltrexone hydrochloride], in the data set with lung (human, in vivo), the Pulmonotoxic is given as 0.
Take `Cc1ccnc2c1NC(=O)c1cccnc1N2C1CC1` [Nevirapine]: the Pulmonotoxic in the data set on lung (human, in vivo) was 0.
For the compound `O=C1CN(/N=C/c2ccc([N+](=O)[O-])o2)C(=O)N1` [Nitrofurantoin], the Pulmonotoxic in the data set with lung (human, in vivo) is given as 1.
As for `CCOc1ccc(NC(C)=O)cc1` [Phenacetin], in data set [1] (human, in vivo), the “PTC Toxicity” value is reported as “Non-toxic”.
Turning to `[K+].[K+].[O]=[Cr](=[O])([O-])[O][Cr](=[O])(=[O])[O-]` [Potassium dichromate], in data set [1] (human, in vivo), the “PTC Toxicity” value is “Toxic” and the PTC-toxic is recorded as 1. For the same compound, in the data set on human kidney (in vivo), the Nephrotoxic is 1. In addition, in the data set with liver, the Hepatotoxic is on record as 1.
`COc1ccc(C[C@H](N)C(=O)N[C@H]2[C@@H](O)[C@H](n3cnc4c(N(C)C)ncnc43)O[C@@H]2CO)cc1` [Puromycin]: in data set [1] (human, in vivo), the “PTC Toxicity” value is recorded as “Toxic” and the PTC-toxic is listed as 1. In the data set on human kidney (in vivo), the Nephrotoxic was 1. The Hepatotoxic in the data set on liver is listed as 1.
Take `CO[C@H]1/C=C/O[C@@]2(C)Oc3c(C)c(O)c4c(O)c(c(/C=N/N5CCN(C)CC5)c(O)c4c3C2=O)NC(=O)/C(C)=C\C=C\[C@H](C)[C@H](O)[C@@H](C)[C@@H](O)[C@@H](C)[C@H](OC(C)=O)[C@@H]1C` [Rifampicin]: in data set [1] (human, in vivo), the “PTC Toxicity” value is on record as “Toxic” and the PTC-toxic is 1. The Nephrotoxic with human kidney (in vivo) is on record as 1. In the data set with liver, the Hepatotoxic is listed as 1.
On to `C=CC[C@@H]1/C=C(\C)C[C@H](C)C[C@H](OC)[C@H]2O[C@@](O)(C(=O)C(=O)N3CCCC[C@H]3C(=O)O[C@H](/C(C)=C/[C@@H]3CC[C@@H](O)[C@H](OC)C3)[C@H](C)[C@@H](O)CC1=O)[C@H](C)C[C@@H]2OC` [Tacrolimus], for which, in data set [1] (human, in vivo), the “PTC Toxicity” value is “Toxic” and the PTC-toxic is recorded as 1. Also, the Nephrotoxic with human kidney (in vivo) is recorded as 1. The Hepatotoxic in the data set on liver was 0.
In the case of `CN(C)[C@@H]1C(O)=C(C(N)=O)C(=O)[C@@]2(O)C(O)=C3C(=O)c4c(O)cccc4[C@@](C)(O)[C@H]3C[C@@H]12` [Tetracycline], in data set [1] (human, in vivo), the “PTC Toxicity” value was “Toxic” and the PTC-toxic was 1. The Nephrotoxic with human kidney (in vivo) is given as 1. In addition, the Hepatotoxic in the data set with liver is listed as 1.
On to `N[C@@H](Cc1cc(I)c(Oc2ccc(O)c(I)c2)c(I)c1)C(=O)O` [Triiodothyronine], for which, in data set [1] (human, in vivo), the “PTC Toxicity” value was “Non-toxic”.
`CC(C)[C@H](N)C(=O)OCCOCn1cnc2c(=O)[nH]c(N)nc21` [Valacyclovir]: in data set [1] (human, in vivo), the “PTC Toxicity” value is reported as “Non-toxic” and the PTC-toxic is on record as 0. Moreover, in the data set with human kidney (in vivo), the Nephrotoxic is recorded as 1. Further, the Hepatotoxic with liver is 1.
`CN[C@H](CC(C)C)C(=O)N[C@H]1C(=O)N[C@@H](CC(N)=O)C(=O)N[C@H]2C(=O)N[C@H]3C(=O)N[C@H](C(=O)N[C@H](C(=O)O)c4cc(O)cc(O)c4-c4cc3ccc4O)[C@H](O)c3ccc(c(Cl)c3)Oc3cc2cc(c3O[C@@H]2O[C@H](CO)[C@@H](O)[C@H](O)[C@H]2O[C@H]2C[C@](C)(N)[C@H](O)[C@H](C)O2)Oc2ccc(cc2Cl)[C@H]1O` [Vancomycin]: in data set [1] (human, in vivo), the “PTC Toxicity” value is listed as “Non-toxic” and the PTC-toxic is 0. In addition, the Nephrotoxic with human kidney (in vivo) is 1. In addition, the Hepatotoxic in the data set on liver is recorded as 1.
